Source: ChEMBL document CHEMBL5523731, “Bitopic Ligands Support the Presence of a Metastable Binding Site at the β2 Adrenergic Receptor” (J Med Chem, 2024)

Tests used:
[1] = biological target: T1, Beta-2 adrenergic receptor (Homo sapiens, UniProt P07550); assay: Displacement of [3H]-DHA from beta-2 AR (unknown origin) overexpressed in HEK293 cell membrane assessed as inhibition constant incubated for 90 mins by liquid scintillation analysis
[2] = biological target: T1, Beta-2 adrenergic receptor; assay: Antagonist activity at beta-2 AR (unknown origin) overexpressed in HEK293 cell membrane assessed as inhibition of ISO-induced cAMP production at EC80 preincubated for 15 mins followed by agonist addition measured after 30 mins by TR-FRET assay
[3] = biological target: T1, Beta-2 adrenergic receptor; assay: Displacement of [3H]-DHA from beta-2 AR (unknown origin) overexpressed in HEK293 cell membrane assessed as dissociation constant (K) incubated for 90 mins by liquid scintillation analysis

T1 sequence (P07550 whole entry): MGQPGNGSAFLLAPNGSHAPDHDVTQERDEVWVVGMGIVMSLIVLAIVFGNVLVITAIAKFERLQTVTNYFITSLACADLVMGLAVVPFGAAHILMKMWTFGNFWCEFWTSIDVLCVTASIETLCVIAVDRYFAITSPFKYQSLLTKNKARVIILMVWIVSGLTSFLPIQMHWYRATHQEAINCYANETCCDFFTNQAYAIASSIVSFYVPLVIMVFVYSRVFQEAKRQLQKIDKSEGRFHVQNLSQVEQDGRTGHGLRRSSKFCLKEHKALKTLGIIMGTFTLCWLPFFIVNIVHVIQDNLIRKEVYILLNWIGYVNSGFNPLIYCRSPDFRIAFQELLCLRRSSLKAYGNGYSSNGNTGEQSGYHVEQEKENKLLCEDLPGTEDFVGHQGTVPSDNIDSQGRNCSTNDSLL

Row | Ki [1] | IC50 [2] | Kd [3] | SMILES
1 | 389 nM | 4.79 µM | 589 nM | CC(C)NC[C@H](O)COc1ccc(CCCCN=[N+]=[N-])cc1
2 | – | 3.98 µM | – | CC(C)NC[C@H](O)COc1ccc(CCCN=[N+]=[N-])cc1
